These results are taken from patent US7893024B2, “Enhancement of iron chelation therapy” (priority 2002, dated 2011).

“And” between values parts separate entries of the source, which are not always exact repeats. Equal entries are not always repeated. Structures can show the parent of a compound that is named as a salt.

The target in series [1] is T1, ferritin (Aquarana catesbeiana, UniProt P07229).
T1 construct: made in house; host or cells: E. coli BL21-DE3-PLysS, vector pET-9a
T1 sequence (P07229 2-176): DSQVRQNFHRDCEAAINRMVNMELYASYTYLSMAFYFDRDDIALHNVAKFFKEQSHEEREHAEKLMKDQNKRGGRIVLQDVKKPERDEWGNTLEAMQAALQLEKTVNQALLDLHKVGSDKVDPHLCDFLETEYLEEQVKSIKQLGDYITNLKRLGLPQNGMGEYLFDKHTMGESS
Put plainly: Iron release from mineralized recombinant ferritin monitored as formation of Fe(II)-bipyridyl (A522 nm), NADH/FMN reductant. The format is biochemical. Particulars: for increase in the initial rate of iron release: in combination with the chelator 2,2′-bipyridine. As for the experimental part: Briefly, as described in further detail below, recombinant ferritin was expressed, isolated, and mineralized. The mineralized, recombinant ferritin was incubated with a protein unfolding reagent (e.g., urea, guanidine, or Triton X-100). Chelator and reductant was then added to the reaction, and rates of iron release were monitored by UV absorbance detection of formation of Fe(II)-bipyridyl (A522 nm/sec).
Production of recombinant ferritin. Recombinant ferritin was expressed using bullfrog sequences as the kinetic properties have been particularly favorable for study (Takagi H., et al. (1998) J. Biol. Chem. 273:18685)(18)(19)(20). Crystallographic studies of frog and human ferritins (Trikha, J., Theil, E. C. & Allewell, N. M. (1995) J Mol Biol 248, 949-67)(Hempstead, P. D., Yewdall, S. J., Fernie, A. R., Lawson, D. M., Artymiuk, P. J., Rice, D. W., Ford, G. C., & Harrison, P. M. (1997) J. Mol. Biol. 268, 424-448) show very similar structures and mechanisms (Bou-Abdallah, F., Papaefthymiou, G. C., Scheswohl, D. M., Stanga, S. D., Arosio, P. & Chasteen, N. D. (2002) Biochem J. 364, 57-63)(Hwang, J., Krebs, C., Huynh, B. H., Edmondson, D. E., Theil, E. C. & Penner-Hahn, J. E. (2000) Science 287, 122-125)(18). […] Two proteins were compared in the study: H-wild type and H-L134P, an “open” pore protein for which the crystal structure is known (Takagi H., et al. (1998) J. Biol. Chem. 273:18685). Sequences coding H-wild type and H-L134P ferritin were inserted into the vector pET-9a and expressed in E. coli BL21-DE3-PLysS (Stratagene®). The recombinant proteins were isolated as the 24-subunit assembly without Fe (<0.5/subunit) using methods previously described (20).
Mineralization of ferritin. Recombinant ferritin was mineralized by adding a freshly prepared, acidic solution of FeSO4 (to minimize oxidation and hydrolysis) to apoferritin in buffer and incubating at room temperature for 1 hour and then overnight at 4° C., to complete hydrolysis of ferric mineral precursors (18). The final solution was 2.08 μM protein with 480 Fe/protein ([…]) in 0.1 M MOPS, 0.1M NaCl, pH=7. Sterile solutions of mineralized ferritin are stable for months to years.
Measurement of iron release rates. Rates of Fe exit from ferritin (rates of dissolving the Fe biomineral) were monitored as formation of Fe(II)-bipyridyl (A522 nm/sec). The reaction was started by mixing an equal volume of mineralized ferritin with an equal volume of a solution of a NADH (5 mM), FMN (5 mM), and bipyridyl (5 mM) as first described by Jones and Walsh (21). The initial rates of iron chelation were calculated by taking the linear ascending part of the multiphasic reaction curve, averaged from 3 independent assays/protein preparations and 2-3 independent protein preparations.
Triton X-100 and Urea. One set of reactions was treated with Triton X-100 at final concentrations of 0.1%, 1.0% or 10% (volume/volume). A second set of reactions was treated with urea at final concentrations of 1 mM, 10 mM, or 1M. A third set of reactions was treated with a control solution containing only buffer. All three sets of ferritin solutions were incubated further for 17-20 hours (i.e., overnight) at 4° C., then returned to room temperature. Iron release was initiated by the addition of 2.5 mM bipyridine, 2.5 mM NADH, and 2.5 mM FMN (final concentrations). The amount of iron released from ferritin was monitored at room temperature, over a period of one hour, by appearance of absorbance at 522 nm due to formation of the Fe(II)-bipyridyl complex.
Urea, Guanidine HCl, and Triton X-100. The effects on iron release from ferritin of urea, guanidine hydrochloride, and Triton X-100 were studied by mixing solutions of the mineralized protein with a protein unfolding reagent and incubating at room temperature for 1 hour, followed by incubating overnight at 4° C. before adding reductant and chelator. […]

The target of series [2] is T1, ferritin. Put plainly: Subdomain unfolding of ferritin by circular dichroism (helix/coil transition). More on the design: species or system bullfrog. As to the method:
The effects of protein unfolding agents on subdomain unfolding of ferritin were monitored as changes in the Circular Dichroism (CD) spectra. Both wild type ferritin (H-WT) and the open pore mutant H-L134P were analyzed. Solutions of mineralized protein (2.08×10^−1 μM in 10 mM MOPS buffer, pH 7.0), were incubated with or without 1 mM urea overnight as described herein, and equilibrated for 10 minutes at the selected temperature before recording spectra between 300 nm to 200 nm. CD spectra recorded on a Pi-180 spectrophotometer (Applied Photophysics, Surrey, UK) over the temperature range of 5° C. to 65° C. Spectra were recorded in a cuvette with a 1 cm path length at protein concentrations of 2×10^−7 M, except for H-L134P, the protein with fully open pores in protein crystals, where the concentration was 4×10^−7 M to compensate for the lower signal at higher temperatures. Contributions of the solvent to the protein spectra were subtracted. Molar ellipticities at 220 nm were determined from the optical rotation, and the percent alpha helix content was calculated as described by Frére et al (Frere, V., Sourgen, F., Monnot, M., Troalen, F. & Fermandjian, S. (1995) J Biol Chem 270, 17502-17507) and Zhong and Johnson (Zhong, L. & Johnson, W. C. J. (1992) Proc Natl Acad Sci USA 89, 4462-4465). Curves were fit to the data using Sigmaplot 8.0. Fits and data matched with P<0.001. Data presented for H-L 134P ferritin are representative of two sets of measurements on one preparation and the data for the H-wild type protein, with and without urea, are representative of 3 independent protein preparations.

The target in series [3] is T1, ferritin. Description: Fe uptake and mineralization / Fe(II) oxidation at the ferroxidase site (A650). The format is biochemical, bullfrog. As to the method: The temperature of the helix coil/transition in the pore was lower in both H-L134P protein and the wild type protein +1 mM urea (FIG. 3B) and is in the physiological range. […] However, the stability of the partially unfolded H-L 134P protein was lower, and loss of helix continued between 45° C. and 65° C. […] Rates were 1.9±0.1×10^−3, 2.93±0.1×10^−3 and 4.68±0.06×10^−3 mmoles/second for H-WT ferritin+1 mM urea, H-L134P ferritin and Wild Type H ferritin+1M urea, respectively (FIGS. 2A, B). The local nature of the helix/coil transition induced by 1 mM urea observed between 35° C. and 50° C. (FIG. 3B), is emphasized by the small effects on other ferritin functions such as Fe uptake and mineralization where the rates were 0.67±0.01 and 0.57±0.01 ΔA650s^−1 for zero and 10 mM urea, respectively, for 480 Fe/protein.

Another series concerns HeLa cells. Description: Cell viability by trypan blue exclusion test.
In series [4] the target is T1, ferritin. Put plainly: Iron release from ferritin with Desferal substituted for bipyridyl, Fe(III)-Desferal complex monitored at 430 nm. The format is biochemical. The following applies: H-Wild Type ferritin, in the absence of urea. From the text:
Desferal® (desferrioxamine mesylate or DFO), a chelator of Fe(III), is currently the drug of choice to remove Fe from patients with excess tissue iron accumulated from monthly transfusions to treat betaglobin gene mutations (Sickle Cell Disease and Beta Thalassemia). Positive selection has made the mutations relatively common (<10%) in areas of the world where malaria is endemic. […] In order to determine if unfolding ferritin pores increased Desferal® chelation of ferritin Fe, the chelator was substituted for bipyridyl in the mixture of NADH/FMN usually used. Formation of the Fe(III)— Desferal® complex was monitored at 430 nm, the absorbance maximum under the conditions used.

In series [5] the test system is ferritin. The following applies: Crichton et al. 1980; cited from earlier work.
[6] abbreviates: 1.0 mM to 1 M urea or guanidine.
Setting [7] is: 1M NaCl, MOPS buffer (data not shown).

Protocol for HeLa cells: HeLa cells, cultured in DMEM medium with 10% FBS, were incubated with the protein unfolding agents for 24 hours at 37° C. in 12-well plates. Cells were treated with trypsin, fresh medium was added and the cells were suspended in the fresh DMEM medium with 10% FBS. Cell suspensions were mixed 1:4 with trypan blue in 0.85% NaCl (weight/volume), incubated 5 minutes at room temperature, then examined by light microscopy in a hemocytometer chamber. Blue cells are scored as non-viable. For each condition, 1-3 analyses were performed.

On to `NC(N)=O` [urea], for which the “time for removal of >95% of the Fe” value was 33 min at ferritin [1] (1 mM urea), 13 min at ferritin [1] (10 mM urea), 4 min at ferritin [1] (1 M urea) and 20 min on ferritin [1] (2 M urea). In addition, the “increase over the initial rate without urea” value on ferritin [1] (1 M urea) was 4.81 fold. Also, the “initial rate of Fe(II) bipyridyl formation” value is 1.02±0.11×10^−3 mmoles/second on ferritin [1] (2 M urea); 1.90±0.11×10^−3 mmole/second and 1.9±0.1×10^−3 mmole/second at ferritin [1] (H-WT ferritin, 1 mM urea); 4.68±0.06×10^−3 mmoles/second on ferritin [1] (H-WT ferritin, 1 M urea). Moreover, the “decrease in the time to release 50% of the total iron in ferritin” value on ferritin [1] (chelator 2,2′-bipyridine, absorbance at 522 nm=0.4) was 10 fold. Besides, the “increase in the initial rate of iron release” value at ferritin [1] is given as 2-4 fold. Further, the most effective concentrations on ferritin [1] (urea, enhancement of iron release) lay in the range of 1 to 1000 mM. Moreover, the “Fe(II)-bipyridyl formation in the absence of FMN/NADH” value on ferritin [1] (urea-treated protein, no reductant) was “No Fe(II)-bipyridyl formed”. At ferritin [2] (setting [6]), the “downshift of a helix/coil transition” value stood at 10 °C. The “helix/coil transition temperature after downshift” value at ferritin [2] (setting [6]) turned out to be 43 °C. Moreover, the “Tm (midpoint) of decrease in helix structure” value on ferritin [2] (WT ferritin, 1 mM urea) is 41 °C. Besides, the helix loss at ferritin [2] (WT ferritin, 1 mM urea) was roughly 10%. Moreover, the “increase of transition temperature in the absence of urea versus 1 mM urea” value at ferritin [2] (wild type ferritin) was found to be 12 °C. In addition, the “rate of Fe uptake and mineralization” value on ferritin [3] (10 mM urea, 480 Fe/protein) is given as 0.57±0.01 ΔA650s^−1. Besides, the “Fe(II) oxidation, a measure of Fe(II) entry and binding to the ferroxidase site” value at ferritin [3] (urea-treated ferritin) is on record as “slightly inhibited”.
With Triton X-100, the most effective concentration on ferritin [1] (Triton X-100, enhancement of iron release) was 1.0-10 % (volume/volume). Also, at ferritin [1] (Triton X-100 at 1% and 10%), the “effect on ferritin iron release (formation rate of Fe(II)-bipyridyl)” value was “comparable to the effect of 1 and 10 mM urea”. For the same molecule, the “increase in the initial rate of iron release” value at ferritin [1] is on record as 2-3 fold. For the same molecule, in the series with HeLa cells (1.0% and 10% (data not shown)), the toxicity to cells entry is “toxic”.
As to `[Cl-].[Na+]` [NaCl, Sodium chloride, reference compound], at ferritin [1] (setting [7]), the “initial rate of Fe(II)-bipyridyl formation” value is “decreased” and the “total amount of Fe chelated” value is “decreased”.
For the molecule `Cl.N=C(N)N` [guanidine, guanidine hydrochloride], on ferritin [1] (Gd.HCl at 0.1 mM), the “effect on formation rate of Fe(II)-bipyridyl” value was “increased rates significantly”. For the same molecule, the “effect on ferritin iron release (formation rate of Fe(II)-bipyridyl)” value at ferritin [1] (Gd.HCl at 1 and 10 mM) was “comparable to the effect of 1 and 10 mM urea”. In the series with HeLa cells (1 mM, 24 hours at 37° C.), the “Average % nonviable cells” value is reported as 6%. In addition, in the series on HeLa cells (indicated concentrations (1 mM)), the “cell viability versus cells in normal medium” value is “No significant difference”.
On to `CC(=O)N(O)CCCCCNC(=O)CCC(=O)N(O)CCCCCNC(=O)CCC(=O)N(O)CCCCCN` [Desferal®, desferrioxamine mesylate], for which the “Fe that could be chelated” value on ferritin [4] is given as 10%. Further, the “Fe removal from ferritin in solution” value with ferritin [5] is “removes little Fe”.
